# Test results: patent US20120010290A1, “Methods of Treating an Overweight or Obese Subject” (priority 2008, published 2012)
# Test system: diet-induced obese C57BL/6NTac mice
# Test: Weight loss study in diet-induced obese mice
# Format: in vivo
# Details: oral 1.0 mg/kg in 10% gelucire in deionised water, once a day for 7 days; C57BL/6NTac mice on 60% fat diet; after 7 days
# Procedure: A weight loss study was conducted in obese mice. The mice in this study were not genetically obese, but prior to and during the study, obesity was induced by a high-fat diet. Twelve week-old C57BL/6NTac mice, maintained on a 60% fat diet prior to and during the study, were separated into two groups, with eight animals per group. Average body weight of the mice was approximately 47 g at the start of the study.
# One group was orally administered 1.0 mg/kg of compound H in 10% gelucire in deionised water, and one group was administered 10% gelucire in deionised water (vehicle). Compound H is as follows:
# Mice received administrations once a day for 7 days. After 7 days, the average weight loss of mice administered compound H was 13.2%.
structure (smiles),measurement,value
CCN(CC)C/C=C\c1ccccc1S(=O)(=O)Nc1ccc2c(c1C(=O)O)CCCC2 [compound H],average weight loss,13.2%
